# From PMC7187627 (Antimicrobial Agents and Chemotherapy, 2019)
# “Also recorded” adds a separate entry of the source.
# Experiment: Safety and tolerability (adverse events, laboratory tests, ECG), multiple-ascending-dose phase 1 study
# Format: in vivo
# Description: Subjects were monitored closely with serial physical examinations, blood evaluations, and 12-lead ECGs. Subjects underwent safety laboratory testing, including measurement of blood cell counts (white blood cell [WBC] with differential, hemoglobin, and platelets), serum chemistry (sodium, potassium, chloride, calcium, bicarbonate, glucose, creatinine, blood urea nitrogen [BUN], creatine kinase [CK], aspartate aminotransferase [AST], alanine aminotransferase [ALT], alkaline phosphatase [ALP], total bilirubin, protein, albumin, amylase, and lipase) and urinalysis (protein, blood, and glucose). Study halting criteria had been established and were reviewed by an independent safety monitor (ISM) and the Safety Monitoring Committee (SMC) prior to proceeding with dosing within a cohort or to the next cohort.
# The safety population included all subjects who received at least one dose of the study drug. The safety and tolerability of CRS3123 were evaluated by the sequential review of reported adverse events (AEs), changes from baseline in physical examination findings, vital sign measurements, safety laboratory tests (hematology, clinical chemistry, and urinalysis), and key 12-lead ECG findings. All safety assessments were summarized with descriptive statistics or frequency counts.
# The period of observation for AE reporting began on day 1 at the time of study drug administration and continued through the final visit.
# All AEs were coded to system organ class (SOC) and preferred term (PT) using the Medical Dictionary for Regulatory Activities (MedDRA), version 17.0 (https://www.meddra.org/). A treatment-emergent AE (TEAE) was defined as any AE that occurred during the study observation period (i.e., from day 1 at the time of study drug administration through the final visit). An AE with a partial onset date was classified as a TEAE if the reported partial onset date could not definitely be identified as before the date of study drug administration. Any AE with a missing onset date or missing time on day of study drug administration was classified as a TEAE.
# To count the overall number of subjects who experienced each TEAE and calculation of an occurrence rate, a subject experiencing multiple occurrences of an AE was counted only once for that PT. Similarly, if a subject experienced multiple TEAEs within the same SOC, that subject was counted once to calculate an occurrence rate for the SOC. To count the number of subjects who experienced each TEAE by severity classification (mild, moderate, severe, and life-threatening) and calculate an occurrence rate, a subject experiencing multiple occurrences of an AE of the same severity was counted once in that particular severity classification for that PT. If a subject experienced multiple occurrences of an AE of differing severities, only the most severe occurrence within each PT was counted.
# [1] = 200, 400, 600 mg orally twice daily for 10 days
# [2] = all TEAEs, Cohort A, 200 mg Q12h (n = 8)
smiles,measurement,setting,value
O=c1cc(NCCCN[C@@H]2CCOc3c(Br)cc(Br)cc32)[nH]c2ccsc12 [CRS3123],QTcF interval,"12-lead ECG, all doses",no QTcF interval changes; also recorded: no prolongation of the QTcF interval
same,"deaths, serious adverse events, severe TEAEs",[1],no serious adverse events (SAEs) or severe treatment-emergent adverse events (TEAEs) reported
same,overall safety and tolerability,[1],generally safe and well tolerated
same,proportion of subjects reporting at least one treatment-related AE,active groups (placebo 33.3%),12.5 % subjects
same,No. (%) of subjects: Alanine aminotransferase increased,"all TEAEs, All active (n = 24)",3 (12.5)
same,No. (%) of subjects: Amylase increased,"all TEAEs, All active (n = 24)",3 (12.5)
same,No. (%) of subjects: Anxiety,"all TEAEs, All active (n = 24)",1 (4.2)
same,No. (%) of subjects: Arthropod bite,"all TEAEs, All active (n = 24)",1 (4.2)
same,No. (%) of subjects: Aspartate aminotransferase increased,"all TEAEs, All active (n = 24)",2 (8.3)
same,No. (%) of subjects: Blood bilirubin increased,"all TEAEs, All active (n = 24)",1 (4.2)
same,No. (%) of subjects: Blood calcium increased,"all TEAEs, All active (n = 24)",1 (4.2)
same,No. (%) of subjects: Blood potassium increased,"all TEAEs, All active (n = 24)",1 (4.2)
same,"No. (%) of subjects: Blood pressure, diastolic, decreased","all TEAEs, All active (n = 24)",1 (4.2)
same,"No. (%) of subjects: Blood pressure, diastolic, increased","all TEAEs, All active (n = 24)",1 (4.2)
same,"No. (%) of subjects: Blood pressure, systolic, decreased","all TEAEs, All active (n = 24)",0 (0.0)
same,"No. (%) of subjects: Blood pressure, systolic, increased","all TEAEs, All active (n = 24)",1 (4.2)
same,No. (%) of subjects: Diarrhea,"all TEAEs, All active (n = 24)",2 (8.3)
same,No. (%) of subjects: Dry skin,"all TEAEs, All active (n = 24)",1 (4.2)
same,No. (%) of subjects: Dysgeusia,"all TEAEs, All active (n = 24)",1 (4.2)
same,No. (%) of subjects: Ear and labyrinth disorders (system organ class),"all TEAEs, All active (n = 24)",1 (4.2)
same,No. (%) of subjects: Ear discomfort,"all TEAEs, All active (n = 24)",1 (4.2)
same,No. (%) of subjects: Erythema,"all TEAEs, All active (n = 24)",1 (4.2)
same,No. (%) of subjects: Gastrointestinal disorders (system organ class),"all TEAEs, All active (n = 24)",2 (8.3)
same,No. (%) of subjects: General disorders and administration site conditions (system organ class),"all TEAEs, All active (n = 24)",1 (4.2)
same,No. (%) of subjects: Headache,"all TEAEs, All active (n = 24)",2 (8.3)
same,No. (%) of subjects: Hemoglobin decreased,"all TEAEs, All active (n = 24)",4 (16.7)
same,No. (%) of subjects: Infections and infestations (system organ class),"all TEAEs, All active (n = 24)",1 (4.2)
same,No. (%) of subjects: Infusion site thrombosis,"all TEAEs, All active (n = 24)",1 (4.2)
same,"No. (%) of subjects: Injury, poisoning, and procedural complications (system organ class)","all TEAEs, All active (n = 24)",1 (4.2)
same,No. (%) of subjects: Investigations (system organ class),"all TEAEs, All active (n = 24)",15 (62.5)
same,No. (%) of subjects: Lipase increased,"all TEAEs, All active (n = 24)",5 (20.8)
same,No. (%) of subjects: Musculoskeletal and connective tissue disorders (system organ class),"all TEAEs, All active (n = 24)",1 (4.2)
same,No. (%) of subjects: Myalgia,"all TEAEs, All active (n = 24)",1 (4.2)
same,No. (%) of subjects: Nervous system disorders (system organ class),"all TEAEs, All active (n = 24)",3 (12.5)
same,No. (%) of subjects: Oropharyngeal pain,"all TEAEs, All active (n = 24)",1 (4.2)
same,No. (%) of subjects: Psychiatric disorders (system organ class),"all TEAEs, All active (n = 24)",1 (4.2)
same,"No. (%) of subjects: Respiratory, thoracic, and mediastinal disorders (system organ class)","all TEAEs, All active (n = 24)",2 (8.3)
same,No. (%) of subjects: Skin and subcutaneous tissue disorders (system organ class),"all TEAEs, All active (n = 24)",2 (8.3)
same,No. (%) of subjects: Subjects with TEAEs,"all TEAEs, All active (n = 24)",20 (83.3)
same,No. (%) of subjects: Throat irritation,"all TEAEs, All active (n = 24)",1 (4.2)
same,No. (%) of subjects: Upper respiratory tract infection,"all TEAEs, All active (n = 24)",1 (4.2)
same,No. (%) of subjects: White blood cell count increased,"all TEAEs, All active (n = 24)",0 (0.0)
same,No. (%) of subjects: Alanine aminotransferase increased,[2],1 (12.5)
same,No. (%) of subjects: Amylase increased,[2],1 (12.5)
same,No. (%) of subjects: Anxiety,[2],1 (12.5)
same,No. (%) of subjects: Arthropod bite,[2],1 (12.5)
